Measurements published in ChEMBL document CHEMBL1201862, “PubChem BioAssay data set” (2004).
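The compound was tested at five concentrations on cells cultured in 96-well plates, with a 48-hour exposure period. The concentration for 50% growth inhibition is given as GI50.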 Active and inactive are the calls of the source. No stated cut-off is given here; in the data, active = GI50 up to about 1.1 µM and inactive = higher.

Columns and labels:
Assay in all cases: NCI anticancer screen, dose series, 48 h
[1] = system: UACC-62
[2] = system: SK-MEL-5
[3] = system: OVCAR-8
[4] = system: Malme-3M
[5] = system: SNB-75
[6] = system: KM12
[7] = system: K562
[8] = system: UACC-257
[9] = system: SF-268
[10] = system: SK-OV-3
[11] = system: NCI-H522
[12] = system: COLO 205
[13] = system: TK-10
[14] = system: HCT-15
[15] = system: HOP-62
[16] = system: SK-MEL-2
[17] = system: IGROV-1
[18] = system: SN12C
[19] = system: OVCAR-4
[20] = system: SW-620

SMILES | GI50 [1] | GI50 [2] | GI50 [3] | GI50 [4] | GI50 [5] | GI50 [6] | GI50 [7] | GI50 [8] | GI50 [9] | GI50 [10] | GI50 [11] | GI50 [12] | GI50 [13] | GI50 [14] | GI50 [15] | GI50 [16] | GI50 [17] | GI50 [18] | GI50 [19] | GI50 [20]
C=CC(=O)NC(O)(C(=O)OCC)C(F)(F)F (stereo not drawn) | > 100 µM (inactive) | > 100 µM (inactive) | > 100 µM (inactive) | > 100 µM (inactive) | > 100 µM (inactive) | > 100 µM (inactive) | > 100 µM (inactive) | > 100 µM (inactive) | > 100 µM (inactive) | > 100 µM (inactive) | > 100 µM (inactive) | > 100 µM (inactive) | > 100 µM (inactive) | > 100 µM | > 100 µM (inactive) | > 100 µM (inactive) | > 100 µM (inactive) | > 100 µM (inactive) | > 100 µM (inactive) | > 100 µM (inactive)
Cc1ccc(NC(=S)NNC(=O)c2cc(-c3ccccc3)nc3ccccc23)cc1C | 16.9 µM (inactive) | 18 µM (inactive) | 20.8 µM (inactive) | 20 µM (inactive) | 16.3 µM (inactive) | 27.4 µM (inactive) | 33 µM (inactive) | 26.4 µM (inactive) | 29.4 µM (inactive) | 16.6 µM (inactive) | 22.5 µM (inactive) | 16.6 µM (inactive) | 23.7 µM (inactive) | 20.4 µM | 22 µM (inactive) | 18.6 µM (inactive) | 20 µM (inactive) | 17.6 µM (inactive) | 18.1 µM (inactive) | 31.5 µM (inactive)
CC1[C@@H]2CC=C3C4CCC5Cc6nc7c(nc6C[C@@]5(C)C4CC(=O)[C@]32CO[C@@]1(O)C(O)CC(C)(C)O)CC1CCC2C3=C[C@H]4O[C@@]5(O[C@@](C)(CO)C[C@@H]5O)C(C)[C@@]4(O)[C@]3(C)[C@@H](O)CC2[C@]1(C)C7 (stereo partly drawn) | 0.00381 µM (active) | 0.0102 µM (active) | 0.127 µM (active) | 0.0166 µM (active) | < 0.00036 µM (active) | 0.0181 µM (active) | 0.0112 µM (active) | 0.0491 µM (active) | 0.00676 µM (active) | 0.00184 µM (active) | 0.0455 µM (active) | 0.015 µM (active) |  | 0.015 µM | 0.000495 µM (active) | 0.00775 µM (active) | 0.0101 µM (active) | 0.274 µM (active) | 0.431 µM (active) | 0.00933 µM (active)
Cc1cc2c(ccc[n+]2[O-])[n+]([O-])c1 | > 100 µM (inactive) | > 100 µM (inactive) | > 100 µM (inactive) | > 100 µM (inactive) | > 100 µM (inactive) | > 100 µM (inactive) | > 100 µM (inactive) | > 100 µM (inactive) | > 100 µM (inactive) | > 100 µM (inactive) | > 100 µM (inactive) | > 100 µM (inactive) | > 100 µM (inactive) | > 100 µM | > 100 µM (inactive) | > 100 µM (inactive) | > 100 µM (inactive) | > 100 µM (inactive) | > 100 µM (inactive) | > 100 µM (inactive)
CC1C(=O)N(c2ccccc2)NC12CCCc1ccccc12 (stereo not drawn) | > 100 µM (inactive) | > 100 µM (inactive) | > 100 µM (inactive) | > 100 µM (inactive) | > 100 µM (inactive) | > 100 µM (inactive) | > 100 µM (inactive) | > 100 µM (inactive) | > 100 µM (inactive) | > 100 µM (inactive) | > 100 µM (inactive) | > 100 µM (inactive) | > 100 µM (inactive) | > 100 µM | > 100 µM (inactive) | > 100 µM (inactive) | > 100 µM (inactive) | > 100 µM (inactive) | > 100 µM (inactive) | > 100 µM (inactive)
C/C(=C1\N=C(c2ccccc2)OC1=O)c1ccccc1 | > 100 µM (inactive) | > 100 µM (inactive) | 70.8 µM (inactive) | > 100 µM (inactive) | 0.611 µM (active) | > 100 µM (inactive) | > 100 µM (inactive) | > 100 µM (inactive) | > 100 µM (inactive) | > 100 µM (inactive) | > 100 µM (inactive) | > 100 µM (inactive) | > 100 µM (inactive) | > 100 µM | > 100 µM (inactive) | > 100 µM (inactive) | > 100 µM (inactive) |  | > 100 µM (inactive) | > 100 µM (inactive)
